Measurements published in patent US20220062240A1, “METHODS OF TREATING CANCER USING A CLK INHIBITOR” (BioSplice Therapeutics, Inc., priority 2018, published 2022).
pEC50, pIC50: −log10 of the molar value. Like-named read-outs stand apart in the source and are kept apart here.

What was measured:
[1] = molecular target: T1, BMPR1B (ALK6) (Homo sapiens, UniProt O00238); experiment: Kinase IC50 (SelectScreen); type: biochemical; conditions: Table 8
T1 construct: purchased ThermoFisher SelectScreen

[2] = system: HCT 116; experiment: CellTiter-Blue Cell Viability Assay; type: cell-based; conditions: Homo sapiens, 96 h; HCT 116, KRASmut, CTNNB1mut, 4 days
Protocol: (§1) […]. Effect on cell proliferation was performed using the CellTiter-Blue*® viability assay or the CellTiter-Glo© Viability Assay as recommended by the manufacturer (Promega).
(§2) […]. Fluorescence signal was measured at 560ex/590em nm using the Cytation3 multimodal plate reader (BioTek).

[3] = system: DLD-1; experiment: CellTiter-Blue Cell Viability Assay; type: cell-based; conditions: Homo sapiens, 96 h; DLD-1, KRASmut, APCmut, 4 days
Protocol: as §1, §2

[4] = system: HuTu 80; experiment: CellTiter-Blue Cell Viability Assay; type: cell-based; conditions: Homo sapiens, HuTu80, 96 h; HuTu 80, KRASwt, CTNNB1mut, 4 days
Protocol: as §1, §2

[5] = system: HT29; experiment: CellTiter-Blue Cell Viability Assay; type: cell-based; conditions: Homo sapiens, HT-29, 96 h; HT29, KRASwt, BRAFmut, APCmut, 4 days
Protocol: as §1, §2

[6] = system: SW48; experiment: CellTiter-Blue Cell Viability Assay; type: cell-based; conditions: Homo sapiens, 96 h; SW48, KRASwt, APCmut, CTNNB1mut, 4 days
Protocol: as §1, §2

[7] = system: C2BBel; experiment: CellTiter-Blue Cell Viability Assay; type: cell-based; conditions: Homo sapiens, 96 h, KRASwt, APCmut, 4 days
Protocol: as §1, §2

[8] = system: LS513; experiment: CellTiter-Blue Cell Viability Assay; type: cell-based; conditions: Homo sapiens, LS-513, 96 h; LS513, KRASmut, CTNNB1mut, BRAFmut, 4 days
Protocol: as §1, §2

[9] = system: RKO; experiment: CellTiter-Blue Cell Viability Assay; type: cell-based; conditions: Homo sapiens, 96 h, KRASwt, BRAFmut, 4 days
Protocol: as §1, §2

[10] = system: T84; experiment: CellTiter-Blue Cell Viability Assay; type: cell-based; conditions: Homo sapiens, 96 h; T84, KRASmut, APCmut, 4 days
Protocol: as §1, §2

[11] = system: LoVo; experiment: CellTiter-Blue Cell Viability Assay; type: cell-based; conditions: Homo sapiens, 96 h, KRASmut, APCmut, 4 days
Protocol: as §1, §2

[12] = system: COLO 205; experiment: CellTiter-Blue Cell Viability Assay; type: cell-based; conditions: Homo sapiens, 96 h; COLO 205, KRASwt, BRAFmut, APCmut, 4 days
Protocol: as §1, §2

[13] = system: SW1417; experiment: CellTiter-Blue Cell Viability Assay; type: cell-based; conditions: Homo sapiens, 96 h; SW1417, KRASwt, BRAFmut, APCmut, 4 days
Protocol: as §1, §2

[14] = molecular target: cyclin-dependent kinase 1 (CDK1) (Homo sapiens, UniProt P06493); experiment: CDK1 kinase assay (Z-LYTE)
Protocol: Compounds were acoustically transferred on 1536-well plates (Echo 550, LabCyte) instrument. Kinase, peptide, and ATP reagents from the Z′-LYTE Kinase Assay Kits (Thermo Fisher) were dispensed onto the compound plates using an EL406 liquid dispenser (BioTek). Plates were incubated in the dark at room temperature for 1 hr. Development reagent was added to the plates and then incubated in the dark at room temperature for 1 hr. Fluorescence signal form the plate was then read using an EnVision Multilabel Plate Reader (Perkin Elmer).

[15] = molecular target: T2, HIPK2 (Homo sapiens, UniProt Q9H2X6); experiment: Kinase IC50 (SelectScreen); type: biochemical; conditions: Table 8
T2 construct: purchased ThermoFisher SelectScreen

[16] = molecular target: T3, MAP4K1 (HPK1) (Homo sapiens, UniProt Q92918); experiment: Kinase IC50 (SelectScreen); type: biochemical; conditions: Table 8
T3 construct: purchased ThermoFisher SelectScreen

[17] = system: Seventeen human CRC cell lines; experiment: CellTiter-Blue Cell Viability Assay, panel of CRC cell lines; type: cell-based
Protocol: as §1, §2

[18] = system: NCI-N87; experiment: CellTiter-Blue Cell Viability Assay; type: cell-based; conditions: Homo sapiens, 96 h; NCI-N87, TP53, SMAD4, HER2 amplification, 4 days
Protocol: (§3) Effect on cell proliferation was performed using the CellTiter-Blue*® viability assay or the CellTiter-Glo© Viability Assay as recommended by the manufacturer (Promega).
(§4) Cells were plated in a black-walled, clear-bottomed 96-well plates with ˜1.5-3.0×10^3 cells/well in appropriate medium containing 10% FBS. […] Fluorescence signal was measured at 560ex/590em nm using the Cytation3 multimodal plate reader (BioTek).

[19] = system: AGS; experiment: CellTiter-Blue Cell Viability Assay; type: cell-based; conditions: Homo sapiens, 96 h, CDH1, CTNNB1, KRAS, PIK3CA, 4 days
Protocol: as §3, §4

[20] = system: KATO III; experiment: CellTiter-Blue Cell Viability Assay; type: cell-based; conditions: Homo sapiens, 96 h, TP53, 4 days
Protocol: as §3, §4

[21] = system: SNU-1; experiment: CellTiter-Blue Cell Viability Assay; type: cell-based; conditions: Homo sapiens, SNU1, 96 h; SNU-1, KRAS, MLH1, 4 days
Protocol: as §3, §4

[22] = system: SNU-5; experiment: CellTiter-Blue Cell Viability Assay; type: cell-based; conditions: Homo sapiens, 96 h; SNU-5, TP53, CDKN2A, CDH1, 4 days
Protocol: as §3, §4

T1 sequence (O00238 14-502): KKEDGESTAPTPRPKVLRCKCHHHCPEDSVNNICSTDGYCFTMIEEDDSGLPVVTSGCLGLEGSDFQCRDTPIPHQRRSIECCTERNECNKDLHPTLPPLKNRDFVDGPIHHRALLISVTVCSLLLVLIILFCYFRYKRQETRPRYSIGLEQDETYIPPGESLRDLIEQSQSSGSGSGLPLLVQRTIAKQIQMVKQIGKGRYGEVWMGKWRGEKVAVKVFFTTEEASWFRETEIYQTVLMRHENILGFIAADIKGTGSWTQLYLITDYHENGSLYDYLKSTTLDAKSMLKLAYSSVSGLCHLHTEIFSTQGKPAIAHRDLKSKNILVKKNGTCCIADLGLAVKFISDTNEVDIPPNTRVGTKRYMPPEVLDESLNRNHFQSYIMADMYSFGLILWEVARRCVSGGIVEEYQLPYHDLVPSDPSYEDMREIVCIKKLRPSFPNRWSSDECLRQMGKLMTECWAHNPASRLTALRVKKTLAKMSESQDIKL
T3 sequence (Q92918 whole entry): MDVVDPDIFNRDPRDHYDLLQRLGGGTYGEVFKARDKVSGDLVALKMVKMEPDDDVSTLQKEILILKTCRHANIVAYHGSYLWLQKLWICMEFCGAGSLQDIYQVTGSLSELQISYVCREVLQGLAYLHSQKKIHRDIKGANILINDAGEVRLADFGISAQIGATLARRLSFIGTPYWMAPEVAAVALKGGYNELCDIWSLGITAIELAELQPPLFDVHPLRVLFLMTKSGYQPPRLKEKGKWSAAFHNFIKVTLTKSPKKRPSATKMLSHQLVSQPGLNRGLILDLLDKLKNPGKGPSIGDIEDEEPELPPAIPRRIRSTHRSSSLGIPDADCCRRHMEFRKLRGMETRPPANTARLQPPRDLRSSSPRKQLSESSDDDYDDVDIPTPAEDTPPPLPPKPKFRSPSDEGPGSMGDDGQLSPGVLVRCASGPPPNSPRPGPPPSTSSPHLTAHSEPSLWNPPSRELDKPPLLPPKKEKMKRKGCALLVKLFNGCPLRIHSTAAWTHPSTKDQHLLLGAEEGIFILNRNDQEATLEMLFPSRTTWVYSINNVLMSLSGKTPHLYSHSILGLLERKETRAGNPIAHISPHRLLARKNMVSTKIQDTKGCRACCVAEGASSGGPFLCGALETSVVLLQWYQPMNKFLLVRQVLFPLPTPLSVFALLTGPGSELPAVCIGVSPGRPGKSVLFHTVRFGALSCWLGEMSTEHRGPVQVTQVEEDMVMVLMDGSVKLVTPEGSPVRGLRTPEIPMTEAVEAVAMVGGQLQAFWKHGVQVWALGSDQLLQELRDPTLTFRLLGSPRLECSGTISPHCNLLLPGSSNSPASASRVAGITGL
Sequence of cyclin-dependent kinase 1 (CDK1) (P06493 whole entry): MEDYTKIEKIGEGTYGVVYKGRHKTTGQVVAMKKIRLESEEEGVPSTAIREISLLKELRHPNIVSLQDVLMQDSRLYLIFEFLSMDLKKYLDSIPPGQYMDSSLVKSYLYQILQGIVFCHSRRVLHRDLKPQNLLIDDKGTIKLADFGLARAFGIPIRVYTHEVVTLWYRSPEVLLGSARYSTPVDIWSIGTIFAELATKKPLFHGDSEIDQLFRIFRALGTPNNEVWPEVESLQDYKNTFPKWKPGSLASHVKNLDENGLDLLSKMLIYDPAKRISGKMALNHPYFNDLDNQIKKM
Sequence of cyclin-dependent kinase 1 (CDK1) (P14635 whole entry partner): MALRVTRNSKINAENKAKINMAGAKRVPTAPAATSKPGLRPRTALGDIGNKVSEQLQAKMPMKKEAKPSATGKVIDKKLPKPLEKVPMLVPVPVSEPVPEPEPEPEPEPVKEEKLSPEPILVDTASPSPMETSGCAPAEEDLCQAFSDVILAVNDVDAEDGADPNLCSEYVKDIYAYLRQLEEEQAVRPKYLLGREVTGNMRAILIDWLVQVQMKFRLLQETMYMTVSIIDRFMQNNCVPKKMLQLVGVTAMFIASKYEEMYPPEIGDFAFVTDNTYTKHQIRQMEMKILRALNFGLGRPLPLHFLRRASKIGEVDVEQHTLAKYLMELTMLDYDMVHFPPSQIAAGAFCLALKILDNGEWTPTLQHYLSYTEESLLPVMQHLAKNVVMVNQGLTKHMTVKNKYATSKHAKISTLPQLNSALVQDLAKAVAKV
T2 sequence (Q9H2X6 whole entry): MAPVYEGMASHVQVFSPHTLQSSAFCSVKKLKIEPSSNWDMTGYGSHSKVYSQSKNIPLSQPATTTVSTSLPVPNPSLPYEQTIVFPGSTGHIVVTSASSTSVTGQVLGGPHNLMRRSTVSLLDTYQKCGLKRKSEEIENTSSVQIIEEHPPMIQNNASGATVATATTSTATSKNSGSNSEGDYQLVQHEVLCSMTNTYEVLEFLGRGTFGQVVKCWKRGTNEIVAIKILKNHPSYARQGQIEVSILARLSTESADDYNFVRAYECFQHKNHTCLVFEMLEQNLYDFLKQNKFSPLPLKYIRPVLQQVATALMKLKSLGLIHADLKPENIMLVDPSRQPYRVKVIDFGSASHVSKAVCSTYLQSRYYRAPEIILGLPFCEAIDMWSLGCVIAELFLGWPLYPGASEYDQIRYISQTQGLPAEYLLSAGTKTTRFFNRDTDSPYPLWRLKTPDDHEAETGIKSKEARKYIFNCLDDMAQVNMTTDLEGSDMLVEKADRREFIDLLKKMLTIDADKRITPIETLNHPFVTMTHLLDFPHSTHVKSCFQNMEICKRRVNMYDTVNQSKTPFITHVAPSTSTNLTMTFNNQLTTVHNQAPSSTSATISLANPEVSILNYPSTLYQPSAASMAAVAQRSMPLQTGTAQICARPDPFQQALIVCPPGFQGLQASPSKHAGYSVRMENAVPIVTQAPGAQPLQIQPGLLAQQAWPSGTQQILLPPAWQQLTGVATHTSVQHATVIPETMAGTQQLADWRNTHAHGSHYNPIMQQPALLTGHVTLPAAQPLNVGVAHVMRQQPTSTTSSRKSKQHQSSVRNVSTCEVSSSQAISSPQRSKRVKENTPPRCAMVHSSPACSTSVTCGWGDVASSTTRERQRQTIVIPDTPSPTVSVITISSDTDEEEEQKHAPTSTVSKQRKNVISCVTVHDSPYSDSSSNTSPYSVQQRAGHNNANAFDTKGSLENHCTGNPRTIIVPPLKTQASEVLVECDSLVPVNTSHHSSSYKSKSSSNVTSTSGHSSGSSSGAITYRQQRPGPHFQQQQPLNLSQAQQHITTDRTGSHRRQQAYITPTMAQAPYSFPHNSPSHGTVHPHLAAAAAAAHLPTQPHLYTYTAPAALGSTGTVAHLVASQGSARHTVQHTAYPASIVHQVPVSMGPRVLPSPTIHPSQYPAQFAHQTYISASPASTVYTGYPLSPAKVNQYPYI

CN1CCN(c2cc(C(=O)Nc3cc4cc(-c5cnn(C)c5)ccc4cn3)ccn2)CC1 [Compound 12]
pIC50 [1]: 7.48
pEC50 [2]: 6.99
pEC50 [3]: 6.52
pEC50 [4]: 6.75
pEC50 [5]: 6.72
pEC50 [6]: 7.04
pEC50 [7]: 7.11
pEC50 [8]: 6.49
pEC50 [9]: 6.92
pEC50 [10]: 6.90
pEC50 [11]: 6.71
pEC50 [12]: 6.82
pEC50 [13]: 6.55
pIC50 [14]: 5.96
pIC50 [15]: 7.34
pIC50 [16]: 7.54
pEC50 ([17]; 17 CRC cell lines, read-out: Average EC50 of all cell lines): 6.75
pEC50 ([17]; SW48, HuTu80, LS513, HCT 116, read-out: EC50 in the four cell lines carrying a CTNNB1 mutation): 6.49 to 7.04
pEC50 ([17]; all 17 cell lines, read-out: EC50 values across all CRC cell lines tested): > 6.30
pEC50 ([17]; average of eight KRASwt cell lines, read-out: KRAS Status EC50): 6.82
pEC50 ([17]; average of nine KRASmut cell lines, read-out: KRAS Status EC50): 6.70
pEC50 [18]: 7.77
pEC50 [19]: 6.73
pEC50 [20]: 6.35
pEC50 [21]: 7.51
pEC50 [22]: 6.55
